Patent US20100317047A1, “Biomarkers of Hemorrhagic Shock” (THE GENERAL HOSPITAL CORPORATION, priority 2009, published 2010)

What was measured:
22.7 kDa protein = assay: SELDI-TOF MS serum protein profiling in lethal hemorrhagic shock model; type: in vivo; settings: rat serum, 24 hours after VPA 300 mg/kg via femoral vein after hemorrhage; p<0.05 vs HS, n=5
Description: (§1) An animal model of HS was used. Male Wistar-Kyoto rats (254.12±2.71 grams, Harlan, Indianapolis, Ind.) were used in the lethal model of hemorrhagic shock (Shults et al., J. Trauma. 2008; 64(3): 629-638). Each animal's estimated blood volume was calculated using the formula: [estimated blood volume (mL)=weight (g)×0.06 (mL/g)+0.77]. About 1.3 mL of blood was manually drawn at the beginning and end of hemorrhage for analysis (included in the total hemorrhage calculation). The animals were hemorrhaged (40% of their calculated total blood volume) via a femoral arterial catheter over 10 minutes, followed by a 20% blood volume venous bleed over the next 50 minutes. Bleeding was performed using Kent Scientific adjustable pumps (Kent Scientific Corporation, NJ). VPA (300 mg/kg) was administered via a femoral vein catheter after completion of hemorrhage. Blood pressure was monitored continuously during the experiment. The mean arterial pressure (MAP) in animals that were subjected to hemorrhage dropped sharply after bleeding to approximately 20 mm Hg. […]
ProteinChip profiling was performed on CM10 ProteinChip arrays (Ciphergen Biosystems, Fremont Calif.), as recommended by the manufacturer. […] The arrays were then inserted into a ProteinChip (Enterprise edition) TOF-MS and read at an optimized laser setting of 2000 nJ-5000 nJ. […]

claudin-3 [1] = assay: iTRAQ quantification of serum claudin-3 peptide in hemorrhagic shock model; type: in vivo; settings: rat serum, 24 hours post-VPA treatment (300 mg/kg) vs post-hemorrhagic shock; BL to HS ratio 0.323
Description: as §1
Immunodepletion of serum abundant proteins was performed as follows. […] Column performance was monitored by sodium dodecyl sulphate-polyacrylamide gel electrophoresis (SDS-PAGE) followed by Coomassie Blue staining (BioBlue, BioRad). […]

claudin-3 [2] = assay: Western blot of serum claudin-3 in hemorrhagic shock model; type: in vivo; settings: rat serum, 1 hour following VPA treatment; HS 1 hour group showed ~23 kDa and ~11 kDa bands
Description: An animal model of HS was used. Male Wistar-Kyoto rats (254.12±2.71 grams, Harlan, Indianapolis, Ind.) were used in the lethal model of hemorrhagic shock (Shults et al., J. Trauma. 2008; 64(3): 629-638). Each animal's estimated blood volume was calculated using the formula: [estimated blood volume (mL)=weight (g)×0.06 (mL/g)+0.77]. About 1.3 mL of blood was manually drawn at the beginning and end of hemorrhage for analysis (included in the total hemorrhage calculation). The animals were hemorrhaged (40% of their calculated total blood volume) via a femoral arterial catheter over 10 minutes, followed by a 20% blood volume venous bleed over the next 50 minutes. Bleeding was performed using Kent Scientific adjustable pumps (Kent Scientific Corporation, NJ). VPA (300 mg/kg) was administered via a femoral vein catheter after completion of hemorrhage. Blood pressure was monitored continuously during the experiment. […]
To assess whether claudin-3 is a potential biomarker, independent serum samples were taken of sham (no hemorrhage and no treatment), HS 1 hour (1 hour following hemorrhagic shock), and VPA 1 hour (1 hour following VPA treatment) from individual rats and the level of the candidate biomarker was determined by Western blot with anti-claudin-3 antibody. […]

claudin-3 [3] = assay: Western blot of intestinal claudin-3 protein in hemorrhagic shock model; type: in vivo; settings: rat intestinal lysate, 1, 6 and 24 hours after VPA treatment, vs HS 1 hour; n=3
Description: as §1, with “experiment.” for “experiment. The mean arterial pressure (MAP) in animals that were subjected to hemorrhage dropped sharply after bleeding to approximately 20 mm Hg.”
Claudin-3 is a TJ protein that has important roles in establishing epithelial and endothelial barriers. To find out whether HS and VPA treatment affect claudin-3 protein in TJ of epithelial cells, protein expression was analyzed in intestinal tissue obtained from sham, HS 1 hour (1 hour after hemorrhagic shock), and VPA-treated animals (1 hour, 6 hours, and 24 hours after treatment). […]

claudin-3 mRNA = assay: RT-PCR of intestinal claudin-3 mRNA in hemorrhagic shock model; type: in vivo; settings: rat intestine, 1, 6 and 24 hours; β-actin internal control, n=3
Description: To assess whether gene expression of claudin-3 responds to HS and VPA treatment, the mRNA expression of rat intestines among the groups of sham, HS and VPA treatment was compared at 1, 6 and 24 hours using RT-PCR methods.

hemorrhagic shock [4] = assay: Survival in lethal model of hemorrhagic shock; type: in vivo, rat; settings: rats, 60% blood volume hemorrhage, VPA 300 mg/kg; none of the untreated animals survived
Description: as §1, with “Hg. Blood was drawn at baseline (BL, before hemorrhage), hemorrhagic shock (HS), and 24 hours after VPA treatment from individual rats for protein biomarker screening and identification.” for “Hg.”

hemorrhagic shock [5] = settings: rats; Shults et al. 2008, Li et al. 2008, WO 2007117272; cited from earlier work

CCCC(CCC)C(=O)O [VPA, Valproic acid]
serum level of 22.7 kDa protein (SELDI-TOF MS peak intensity) vs HS (22.7 kDa protein): down-regulated in the VPA group sharply | ratio of VPA to HS, claudin-3 peptide iTRAQ tag intensity in serum (claudin-3 [1]): 0.425 | serum claudin-3 by Western blot (claudin-3 [2]): no claudin-3 was detected | intestinal claudin-3 protein level by Western blot (claudin-3 [3]): significantly attenuated the HS-induced reduction of claudin-3 | intestinal claudin-3 mRNA expression by RT-PCR (claudin-3 mRNA): did not significantly change claudin-3 mRNA expression | survival after hemorrhagic shock (hemorrhagic shock [4]): survived | survival after lethal HS (literature) (hemorrhagic shock [5]): improves survival after lethal HS in rats
